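Cultured in 96-well plates, cells were exposed to test compound for 48 hours across five concentrations. GI50: concentration for 50% inhibition of growth.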 Active and inactive are the calls of the source. Cut-off read from the data, not from the text of the source: active = GI50 up to about 1.1 µM and inactive = higher.

Some test systems named below: NCI-H460; DU-145; SK-OV-3; ACHN; NCI-H522; K562; SK-MEL-5; OVCAR-3; SNB-19; CAKI-1; MDA-MB-435; MDA-MB-231; COLO 205; Malme-3M; TK-10; RXF 393; SW-620; HOP-62; HCT-15; SK-MEL-2.
What all share (assay): growth of human tumour cells (NCI), 48 h

Regarding `CCOC(=O)c1sc2c(c1OC(=O)c1cccs1)c(=O)n(-c1ccccc1)c(=S)n2-c1ccccc1`, the GI50 with NCI-H460 is 3.63 µM (inactive); in the test on DU-145 it was 20.5 µM (inactive); with SK-OV-3 it was 18.2 µM (inactive); with ACHN it was 15.8 µM (inactive); with NCI-H522, 4.69 µM (inactive); with K562 it was 19.9 µM (inactive). The GI50 in the test with SK-MEL-5 was 13.5 µM (inactive); in the test with OVCAR-3, 24.7 µM (inactive); in the test on SNB-19, 28.6 µM (inactive); with CAKI-1, 33.1 µM (inactive); in the test with MDA-MB-435, 11.5 µM (inactive); in the test on MDA-MB-231, 14.9 µM (inactive). In addition, the GI50 in the test with COLO 205 is 17.3 µM (inactive); in the test on Malme-3M it was 12.9 µM (inactive); with TK-10, 25 µM (inactive); in the test with RXF 393 it was 24.3 µM (inactive); in the test on SW-620 it was 19.3 µM (inactive); in the test with HOP-62, 21.1 µM (inactive). This molecule gave a GI50 in the test on HCT-15 of 14 µM.

Turning to `C/C(=C/CNc1ncnc2c1ncn2CCC(=O)O)CO`, the GI50 in the test on NCI-H460, with DU-145, with SK-OV-3, with ACHN, with NCI-H522 and in the test with K562 was > 100 µM (inactive) throughout. In addition, the GI50 in the test with SK-MEL-5, in the test on OVCAR-3, with SNB-19, in the test with CAKI-1, with MDA-MB-435 and in the test with MDA-MB-231 was > 100 µM (inactive) in each case. Moreover, the GI50 in the test on COLO 205, in the test on Malme-3M, with TK-10, with RXF 393, in the test with SW-620 and in the test on HOP-62 was > 100 µM (inactive) throughout.

Turning to `O=C1Oc2cc3c(c4cccc1c24)O[C@H](c1ccccc1)[C@@H](c1ccccc1)[C@@H]3c1ccc(Cl)cc1`, the GI50 in the test on NCI-H460 was > 100 µM (inactive); with DU-145, > 100 µM (inactive); in the test with SK-OV-3, 45.2 µM (inactive); in the test on ACHN it was 26.7 µM (inactive); with NCI-H522 it was 38 µM (inactive); in the test with K562, 46.1 µM (inactive). Besides, the GI50 was > 100 µM (inactive) with SK-MEL-5; 36.8 µM (inactive) with OVCAR-3; 29.4 µM (inactive) in the test on SNB-19; > 100 µM (inactive) in the test with CAKI-1; 76.7 µM (inactive) in the test on MDA-MB-435; 18.3 µM (inactive) in the test on MDA-MB-231. In addition, the GI50 with COLO 205 was > 100 µM (inactive); in the test with Malme-3M, 37.3 µM (inactive); with TK-10 it was 39.3 µM (inactive); in the test with RXF 393 it was 17.4 µM (inactive); in the test with SW-620, > 100 µM (inactive); in the test on HOP-62, 18.2 µM (inactive). Besides, the GI50 in the test with HCT-15 is greater than 100 µM.

Regarding `CCOC(=O)CCc1c(C)nc2c(C)c3c([nH]c4ccc(Cl)cc43)c(C)c2c1O`, the GI50 in the test on NCI-H460 was 2.15 µM (inactive); in the test on DU-145, 25.5 µM (inactive); with ACHN it was 12.1 µM (inactive); in the test with NCI-H522, 6.81 µM (inactive); in the test with SK-MEL-2, 1.45 µM (inactive); in the test with SK-MEL-5, 6.12 µM (inactive). Also, the GI50 with SNB-19 is 9.59 µM (inactive); in the test on CAKI-1, 18.2 µM (inactive); in the test with MDA-MB-435 it was 9.18 µM (inactive); in the test with MDA-MB-231, 12.6 µM (inactive); in the test on COLO 205, 10.4 µM (inactive); in the test on Malme-3M, 11.3 µM (inactive). Also, the GI50 in the test with TK-10 was 10.7 µM (inactive); in the test on RXF 393 it was 2.96 µM (inactive); with SW-620 it was 22.4 µM (inactive); with HOP-62 it was 12.3 µM (inactive); with HCT-15 it was 12.2 µM.

For the origin of these results see ChEMBL document CHEMBL1201862, “PubChem BioAssay data set” (2004).
